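Compound exposure: 48 hours, 5 concentrations, 96-well plates. Definition used: TGI = concentration required for complete inhibition of growth.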
Assays:
Assay in all cases: growth of human tumour cells (NCI), 48 h
CAKI-1 renal = tested on: CAKI-1 renal
SW-620 colon = tested on: SW-620 colon
A549 NSCLC = tested on: A549 NSCLC
SK-MEL-2 melanoma = tested on: SK-MEL-2 melanoma
ACHN renal = tested on: ACHN renal
MCF7 breast = tested on: MCF7 breast
SK-MEL-28 melanoma = tested on: SK-MEL-28 melanoma
K-562 leukemia = tested on: K-562 leukemia
MOLT-4 leukemia = tested on: MOLT-4 leukemia
M14 melanoma = tested on: M14 melanoma
LOX IMVI melanoma = tested on: LOX IMVI melanoma
HT29 colon = tested on: HT29 colon
SNB-19 CNS = tested on: SNB-19 CNS
KM12 colon = tested on: KM12 colon
OVCAR-4 ovarian = tested on: OVCAR-4 ovarian
SR leukemia = tested on: SR leukemia

Row | SMILES | TGI (CAKI-1 renal) [µM] | TGI (SW-620 colon) [µM] | TGI (A549 NSCLC) [µM] | TGI (SK-MEL-2 melanoma) [µM] | TGI (ACHN renal) [µM] | TGI (MCF7 breast) [µM] | TGI (SK-MEL-28 melanoma) [µM] | TGI (K-562 leukemia) [µM] | TGI (MOLT-4 leukemia) [µM] | TGI (M14 melanoma) [µM] | TGI (LOX IMVI melanoma) [µM] | TGI (HT29 colon) [µM] | TGI (SNB-19 CNS) [µM] | TGI (KM12 colon) [µM] | TGI (OVCAR-4 ovarian) [µM] | TGI (SR leukemia) [µM]
1 | O=C(/C=C1\N=C(c2ccccc2)N(c2nc3ccc(Sc4ccccc4)cc3[nH]2)C1=O)/C=C/c1ccccc1 | > 100 | > 100 | > 100 | 41.5 | > 100 | > 100 | > 100 | > 100 | > 100 | > 100 | > 100 | 92.8 | > 100 | > 100 | > 100 | 
2 | CC(=O)OC12/C(=N/O)CCCCCC1c1ccccc12 (centres undefined) |  | > 100 | > 100 | > 100 | > 100 |  | > 100 | > 100 | > 100 |  | > 100 | > 100 | > 100 | > 100 | > 100 | > 100
3 | CC1=NCCN=C(C)C1N=Nc1ccc2nc(C)[nH]c2c1 | 36 | 33.4 | 19.6 | 46.3 | 32.1 | 30.1 | 24.2 | 20.1 | 23.6 | 16.8 | 98.8 | 50.9 | 28.7 | 30.9 | 30.6 | 
4 | CS(=O)(=O)c1ccc(/C=N/NC(N)=S)cc1 | > 100 | > 100 | > 100 |  | > 100 | > 100 | > 100 | > 100 | > 100 | > 100 | > 100 | > 100 | > 100 | > 100 | > 100 | 
5 | CC(=O)OC1=c2ccccc2=C(O)C2C1C=NN2C(C)=O (centres undefined) | > 100 | > 100 | > 100 | > 100 | > 100 | > 100 | > 100 | > 100 | > 100 | > 100 | > 100 | > 100 | > 100 | > 100 | > 100 | 
6 | Cc1ccc(S(=O)(=O)c2c(N)c3nc4ccccc4n3c3nc4ccccc4nc23)cc1 | > 100 | > 100 | > 100 | > 100 | > 100 |  | > 100 | > 100 | > 100 | > 100 | > 100 | > 100 | > 100 | > 100 | > 100 | > 100
7 | C=C(CN(C)C)C(=O)c1ccccc1C | 62.6 | 33.1 | > 100 | > 100 | 57.6 |  | 62.4 | 45.9 | 35.7 | 33.8 | > 100 | > 100 | > 100 | > 100 | > 100 | 47.2
8 | CN(C)CCOc1cccc2c1C(=O)c1ccccc1C2=O | 43.8 | 43.7 | 45.4 | 31.4 | > 100 |  | 28.6 | 33.7 | 21.5 | 26.3 | 18.6 | 28.7 | 66.3 | 26.2 | 20.4 | 
9 | CCc1ccc(N=Cc2cc(OC)c(OC)c(OC)c2)cc1 | > 100 | 28.7 | > 100 | > 100 | > 100 |  | > 100 | 73.3 | > 100 | > 100 | > 100 | > 100 | > 100 | > 100 | > 100 | 
10 | OCC1OC(n2nc(-c3ccccc3)nc2-c2cnccn2)C(O)C(O)C1O (centres undefined) |  | > 100 | > 100 |  |  | > 100 | > 100 | > 100 | > 100 | > 100 | > 100 | > 100 | > 100 | > 100 | > 100 | 
11 | CCOC(=O)c1cnn2c1ncc1c(=O)n(NC(N)=O)ccc12 | > 100 | > 100 | > 100 | > 100 | > 100 | > 100 | > 100 |  | > 100 | > 100 | > 100 | > 100 | > 100 | > 100 | > 100 | 
12 | CC(=N\N)/C(C)=N/N=C(C)/C(C)=N/N=C(C)/C(C)=N/N=C(C)/C(C)=N/N | > 100 | > 100 | > 100 | > 100 |  | > 100 | > 100 | > 100 | > 100 | > 100 | > 100 | > 100 | > 100 | > 100 | > 100 | 
13 | O=C(/C=C/c1ccc(OCCCOc2ccc(/C=C/C(=O)c3ccccc3)cc2)cc1)c1ccccc1 |  | > 100 | > 100 | > 100 | > 100 |  | > 100 | > 100 | > 100 | > 100 | > 100 | > 100 | > 100 |  | > 100 | > 100
14 | COc1ccc(/C=C2\CCC(C)C3=C(c4ccc(OC)c(OC)c4)C(C#N)=C(N)OC32)cc1OC (centres undefined) | > 100 | > 100 |  | 5.63 | > 100 | 19.5 | 31.7 | > 100 |  | 15 | 10.9 |  | > 100 | 66.5 |  | 
15 | Cc1ccc(S(=O)(=O)N2CCCN(S(=O)(=O)c3ccc(C)cc3)CCN(S(=O)(=O)c3ccc(C)cc3)CCCSCC2)cc1 |  | > 100 | > 100 | > 100 | > 100 | > 100 | > 100 | > 100 | > 100 | > 100 |  | > 100 | > 100 |  | > 100 | 
16 | O=C(OCc1ccccc1CN1CCOCC1)c1cccc(Br)c1 | 64.6 | > 100 | > 100 | 52.9 | > 100 | > 100 | > 100 | > 100 |  | > 100 | > 100 | 29.5 | > 100 |  | 70 | 

— PubChem BioAssay (NCI)
